Laboratory results: ChEMBL document CHEMBL1137152, “Copper dipicolinates as peptidomimetic ligands for the Src SH2 domain” (Bioorg Med Chem Lett, 2004)

Molecular target: T1, Proto-oncogene tyrosine-protein kinase Src (Homo sapiens, UniProt P12931)
Experiment: Inhibition of fluorescent (GpYEEI) binding to Src protein tyrosine kinase SH2 domain; NA = No significant inhibition; call rule not given here

T1 sequence (P12931 2-536 limits assumed): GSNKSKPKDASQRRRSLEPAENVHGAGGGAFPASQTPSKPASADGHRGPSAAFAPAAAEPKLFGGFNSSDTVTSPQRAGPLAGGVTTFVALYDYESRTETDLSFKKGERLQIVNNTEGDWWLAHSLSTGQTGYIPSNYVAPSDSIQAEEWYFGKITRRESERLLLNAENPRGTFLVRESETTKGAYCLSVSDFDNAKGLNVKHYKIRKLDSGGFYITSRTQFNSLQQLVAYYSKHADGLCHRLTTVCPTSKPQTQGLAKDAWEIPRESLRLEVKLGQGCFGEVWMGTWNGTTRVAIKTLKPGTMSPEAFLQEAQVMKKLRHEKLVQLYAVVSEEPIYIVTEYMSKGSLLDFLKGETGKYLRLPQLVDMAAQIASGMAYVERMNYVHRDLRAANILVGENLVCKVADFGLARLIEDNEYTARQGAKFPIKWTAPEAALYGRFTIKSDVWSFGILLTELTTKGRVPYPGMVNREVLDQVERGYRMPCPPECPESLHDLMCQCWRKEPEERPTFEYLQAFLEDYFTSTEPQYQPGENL

IC50	SMILES
Not Active	COC(=O)c1cc(OCC(=O)N[C@H](C(=O)NCc2cccc(OC)c2)c2ccccc2)cc(C(=O)OC)n1

Molecular target: T1, Proto-oncogene tyrosine-protein kinase Src
Experiment: Inhibition of fluorescent (GpYEEI) binding to Src protein tyrosine kinase SH2 domain

IC50 [µM]	SMILES
396	COC(=O)c1cc(OCC(=O)N[C@@H](Cc2ccccc2)C(=O)NCc2ccc3c(c2)OCO3)cc(C(=O)OC)n1
864	COc1ccc(CNC(=O)[C@H](CC(C)C)NC(=O)COc2cc(C(=O)O)cc(C(=O)O)c2)cc1

The next lines start with the molecule.

SMILES	IC50 [µM]
COC(=O)c1cc(OCC(=O)N[C@@H](Cc2ccccc2)C(=O)NCc2cccc(OC)c2)cc(C(=O)OC)n1	663
COC(=O)c1cc(OCC(=O)N[C@@H](CC(C)C)C(=O)NCc2cccc(OC)c2)cc(C(=O)OC)n1	713
COC(=O)c1cc(OCC(=O)N[C@H](C(=O)NCc2ccc3c(c2)OCO3)c2ccccc2)cc(C(=O)OC)n1	714
